# Data from the kinase profiling compilation of Christmann-Franck et al. (2016).
# Legend:
# Test in all cases: radiometric filter-binding kinase assay, Kinase HotSpot
# Conditions in all cases: compound 0.5 µM; ATP 10 µM
# ABL2 (human) = ABL2 (human) (UniProt P42684)
# AKT1 (human) = AKT1 (human) (UniProt P31749)
# ALK (human) = ALK (human) (UniProt Q9UM73)
# AURKA (human) = AURKA (human) (UniProt O14965)
# BTK (human) = BTK (human) (UniProt Q06187)
# CAMK2A (human) = CAMK2A (human) (UniProt Q9UQM7)
# CDC42BPB (human) = CDC42BPB (human) (UniProt Q9Y5S2)
# CDK4 CCND1 (human) = CDK4 CCND1 (human) (UniProt P24385+P11802)
# CDK5 CDK5R1 p35 (human) = CDK5 CDK5R1 p35 (human) (UniProt Q00535+Q15078)
# DMPK (human) = DMPK (human) (UniProt Q09013)
# DYRK1B (human) = DYRK1B (human) (UniProt Q9Y463)
# EPHA8 (human) = EPHA8 (human) (UniProt P29322)
# EPHB2 (human) = EPHB2 (human) (UniProt P29323)
# FGFR1 (human) = FGFR1 (human) (UniProt P11362)
# FGFR2 (human) = FGFR2 (human) (UniProt P21802)
# FGR (human) = FGR (human) (UniProt P09769)
# GRK4 (human) = GRK4 (human) (UniProt P32298)
# GSG2 (human) = GSG2 (human) (UniProt Q8TF76)
# IRAK1 (human) = IRAK1 (human) (UniProt P51617)
# [1] = molecular target: JAK1 JH1 catalytic (human) (UniProt P23458)
# JAK3 JH1 JH2 (human) = JAK3 JH1 JH2 (human) (UniProt P52333)
# MAP2K1 (human) = MAP2K1 (human) (UniProt Q02750)
# MAPK10 (human) = MAPK10 (human) (UniProt P53779)
# MAPK9 (human) = MAPK9 (human) (UniProt P45984)
# MYO3B (human) = MYO3B (human) (UniProt Q8WXR4)
# NEK2 (human) = NEK2 (human) (UniProt P51955)
# NTRK1 (human) = NTRK1 (human) (UniProt P04629)
# OXSR1 (human) = OXSR1 (human) (UniProt O95747)
# PAK7 (human) = PAK7 (human) (UniProt Q9P286)
# PLK2 (human) = PLK2 (human) (UniProt Q9NYY3)
# PRKCD (human) = PRKCD (human) (UniProt Q05655)
# PRKD1 (human) = PRKD1 (human) (UniProt Q15139)
# RPS6KA1 KD1 KD2 (human) = RPS6KA1 KD1 KD2 (human) (UniProt Q15418)
# RPS6KA4 KD2 (human) = RPS6KA4 KD2 (human) (UniProt O75676)
# RPS6KB2 (human) = RPS6KB2 (human) (UniProt Q9UBS0)
# SIK2 (human) = SIK2 (human) (UniProt Q9H0K1)
# SRPK3 (human) = SRPK3 (human) (UniProt Q9UPE1)
# TAOK2 (human) = TAOK2 (human) (UniProt Q9UL54)
# TLK2 (human) = TLK2 (human) (UniProt Q86UE8)
# TNK2 (human) = TNK2 (human) (UniProt Q07912)
# WEE1 (human) = WEE1 (human) (UniProt P30291)
# CDC42BPA (human) = CDC42BPA (human) (UniProt Q5VT25)
# Chain of ABL2 (human) (P42684 whole entry, looked up): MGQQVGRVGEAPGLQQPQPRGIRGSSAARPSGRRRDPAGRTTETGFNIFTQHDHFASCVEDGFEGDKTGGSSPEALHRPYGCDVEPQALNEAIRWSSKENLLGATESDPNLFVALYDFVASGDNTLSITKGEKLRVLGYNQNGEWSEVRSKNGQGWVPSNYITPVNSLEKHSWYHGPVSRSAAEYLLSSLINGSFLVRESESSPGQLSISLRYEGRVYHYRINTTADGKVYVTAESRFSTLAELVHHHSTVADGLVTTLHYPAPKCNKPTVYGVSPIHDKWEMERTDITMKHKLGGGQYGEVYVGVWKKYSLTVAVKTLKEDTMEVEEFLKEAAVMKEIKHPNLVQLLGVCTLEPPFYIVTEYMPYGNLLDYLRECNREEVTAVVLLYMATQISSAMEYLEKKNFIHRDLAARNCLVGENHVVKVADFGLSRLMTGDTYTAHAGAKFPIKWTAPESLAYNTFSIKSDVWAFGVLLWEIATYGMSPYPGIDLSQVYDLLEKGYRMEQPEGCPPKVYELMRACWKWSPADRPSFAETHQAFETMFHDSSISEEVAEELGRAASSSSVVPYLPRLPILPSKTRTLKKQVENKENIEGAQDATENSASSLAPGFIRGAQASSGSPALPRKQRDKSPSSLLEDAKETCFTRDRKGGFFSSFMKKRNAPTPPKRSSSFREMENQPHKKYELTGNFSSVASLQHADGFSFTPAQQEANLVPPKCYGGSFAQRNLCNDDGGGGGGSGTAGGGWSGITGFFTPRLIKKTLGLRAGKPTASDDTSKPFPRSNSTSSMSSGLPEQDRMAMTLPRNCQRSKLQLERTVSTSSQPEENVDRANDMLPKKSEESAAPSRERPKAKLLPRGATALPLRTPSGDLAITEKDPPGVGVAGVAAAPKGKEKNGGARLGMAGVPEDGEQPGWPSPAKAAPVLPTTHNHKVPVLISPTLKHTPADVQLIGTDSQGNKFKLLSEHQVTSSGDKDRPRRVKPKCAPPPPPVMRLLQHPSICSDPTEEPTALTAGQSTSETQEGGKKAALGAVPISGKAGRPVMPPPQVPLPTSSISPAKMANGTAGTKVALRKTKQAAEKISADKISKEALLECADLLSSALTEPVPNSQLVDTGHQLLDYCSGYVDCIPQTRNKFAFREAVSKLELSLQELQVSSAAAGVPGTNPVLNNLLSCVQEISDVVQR
# Chain of GRK4 (human) (P32298 whole entry, looked up): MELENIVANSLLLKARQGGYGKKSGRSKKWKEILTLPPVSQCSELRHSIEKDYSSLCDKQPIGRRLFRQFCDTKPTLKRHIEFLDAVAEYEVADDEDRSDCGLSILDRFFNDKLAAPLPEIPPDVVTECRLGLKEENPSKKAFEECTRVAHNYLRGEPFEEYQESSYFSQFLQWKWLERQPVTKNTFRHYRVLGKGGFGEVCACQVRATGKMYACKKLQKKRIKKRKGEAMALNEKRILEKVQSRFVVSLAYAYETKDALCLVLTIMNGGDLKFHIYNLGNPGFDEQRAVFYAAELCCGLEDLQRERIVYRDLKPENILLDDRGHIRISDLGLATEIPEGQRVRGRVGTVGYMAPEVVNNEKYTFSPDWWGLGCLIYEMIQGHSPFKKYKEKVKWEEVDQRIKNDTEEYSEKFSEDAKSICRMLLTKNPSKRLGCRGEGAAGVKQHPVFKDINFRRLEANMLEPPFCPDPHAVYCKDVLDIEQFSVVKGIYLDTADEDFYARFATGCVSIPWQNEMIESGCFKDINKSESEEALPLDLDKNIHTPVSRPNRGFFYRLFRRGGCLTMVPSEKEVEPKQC
# Chain of CDK4 CCND1 (human) (P11802 whole entry, looked up): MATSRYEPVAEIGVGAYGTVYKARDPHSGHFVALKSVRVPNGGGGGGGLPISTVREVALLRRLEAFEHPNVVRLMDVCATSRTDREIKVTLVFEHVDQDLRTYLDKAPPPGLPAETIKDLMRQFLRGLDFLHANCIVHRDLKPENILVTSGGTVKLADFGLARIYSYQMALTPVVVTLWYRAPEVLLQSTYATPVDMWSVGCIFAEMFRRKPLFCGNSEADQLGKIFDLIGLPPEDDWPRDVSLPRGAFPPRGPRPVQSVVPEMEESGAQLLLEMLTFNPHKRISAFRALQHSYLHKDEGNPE
# Chain of CDK4 CCND1 (human) (P24385 whole entry, looked up): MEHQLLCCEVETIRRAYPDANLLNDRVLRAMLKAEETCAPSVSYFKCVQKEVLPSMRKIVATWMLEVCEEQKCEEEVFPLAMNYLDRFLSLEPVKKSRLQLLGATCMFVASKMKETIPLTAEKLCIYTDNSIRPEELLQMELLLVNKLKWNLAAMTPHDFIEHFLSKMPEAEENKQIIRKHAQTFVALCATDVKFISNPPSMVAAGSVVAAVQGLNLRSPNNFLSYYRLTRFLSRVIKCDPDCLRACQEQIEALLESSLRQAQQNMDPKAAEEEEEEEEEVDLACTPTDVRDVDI
# Chain of GSG2 (human) (Q8TF76 whole entry, looked up): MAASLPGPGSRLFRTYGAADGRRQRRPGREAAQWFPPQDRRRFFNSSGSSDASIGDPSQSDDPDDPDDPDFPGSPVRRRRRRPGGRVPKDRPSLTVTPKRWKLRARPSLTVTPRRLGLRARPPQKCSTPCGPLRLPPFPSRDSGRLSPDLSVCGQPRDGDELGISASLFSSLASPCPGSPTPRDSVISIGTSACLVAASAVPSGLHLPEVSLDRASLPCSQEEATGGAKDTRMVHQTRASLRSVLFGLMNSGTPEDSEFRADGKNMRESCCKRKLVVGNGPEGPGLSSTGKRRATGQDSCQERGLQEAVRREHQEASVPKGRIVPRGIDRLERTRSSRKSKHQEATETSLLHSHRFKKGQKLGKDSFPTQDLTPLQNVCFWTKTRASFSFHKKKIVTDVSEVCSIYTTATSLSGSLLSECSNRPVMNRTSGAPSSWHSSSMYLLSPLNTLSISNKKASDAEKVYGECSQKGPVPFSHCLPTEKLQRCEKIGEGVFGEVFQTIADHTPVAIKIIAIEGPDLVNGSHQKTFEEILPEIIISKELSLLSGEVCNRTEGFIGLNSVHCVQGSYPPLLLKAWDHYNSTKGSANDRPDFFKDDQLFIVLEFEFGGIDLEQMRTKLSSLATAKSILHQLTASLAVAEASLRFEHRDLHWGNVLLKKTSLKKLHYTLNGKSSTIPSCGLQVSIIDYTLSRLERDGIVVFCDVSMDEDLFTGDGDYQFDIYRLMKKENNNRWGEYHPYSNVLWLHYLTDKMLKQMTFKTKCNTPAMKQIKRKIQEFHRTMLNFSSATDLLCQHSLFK
# Chain of JAK1 JH1 catalytic (human) (P23458 whole entry, looked up): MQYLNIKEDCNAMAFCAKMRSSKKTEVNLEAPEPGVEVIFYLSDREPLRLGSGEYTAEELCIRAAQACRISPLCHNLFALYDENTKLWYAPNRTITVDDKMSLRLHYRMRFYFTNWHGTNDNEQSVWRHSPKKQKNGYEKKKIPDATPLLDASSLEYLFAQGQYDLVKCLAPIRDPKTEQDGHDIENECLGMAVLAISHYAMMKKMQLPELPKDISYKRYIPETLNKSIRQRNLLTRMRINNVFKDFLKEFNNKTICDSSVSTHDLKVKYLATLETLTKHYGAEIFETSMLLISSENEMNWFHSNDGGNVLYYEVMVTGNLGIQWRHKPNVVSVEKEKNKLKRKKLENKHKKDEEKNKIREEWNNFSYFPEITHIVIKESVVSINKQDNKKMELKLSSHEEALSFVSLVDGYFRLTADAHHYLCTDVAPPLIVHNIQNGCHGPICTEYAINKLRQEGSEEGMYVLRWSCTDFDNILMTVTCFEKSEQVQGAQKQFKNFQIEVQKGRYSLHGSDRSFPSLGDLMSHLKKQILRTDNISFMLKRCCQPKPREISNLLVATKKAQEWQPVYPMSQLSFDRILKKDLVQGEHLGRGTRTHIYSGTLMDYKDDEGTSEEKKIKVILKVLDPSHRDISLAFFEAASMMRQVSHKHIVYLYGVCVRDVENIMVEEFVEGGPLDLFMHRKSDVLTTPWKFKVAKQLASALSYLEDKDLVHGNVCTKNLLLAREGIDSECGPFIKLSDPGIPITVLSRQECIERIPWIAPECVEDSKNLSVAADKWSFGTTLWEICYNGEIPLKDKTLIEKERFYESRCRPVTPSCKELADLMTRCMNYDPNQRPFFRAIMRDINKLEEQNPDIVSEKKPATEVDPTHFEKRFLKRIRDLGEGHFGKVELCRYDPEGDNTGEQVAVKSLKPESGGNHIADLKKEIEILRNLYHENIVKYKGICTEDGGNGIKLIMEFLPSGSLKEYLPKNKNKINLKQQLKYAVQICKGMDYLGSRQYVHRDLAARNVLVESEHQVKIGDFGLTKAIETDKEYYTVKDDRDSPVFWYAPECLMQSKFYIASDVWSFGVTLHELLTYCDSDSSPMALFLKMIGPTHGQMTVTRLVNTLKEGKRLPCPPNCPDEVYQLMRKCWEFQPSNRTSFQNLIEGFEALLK
# Chain of PRKCD (human) (Q05655 whole entry, looked up): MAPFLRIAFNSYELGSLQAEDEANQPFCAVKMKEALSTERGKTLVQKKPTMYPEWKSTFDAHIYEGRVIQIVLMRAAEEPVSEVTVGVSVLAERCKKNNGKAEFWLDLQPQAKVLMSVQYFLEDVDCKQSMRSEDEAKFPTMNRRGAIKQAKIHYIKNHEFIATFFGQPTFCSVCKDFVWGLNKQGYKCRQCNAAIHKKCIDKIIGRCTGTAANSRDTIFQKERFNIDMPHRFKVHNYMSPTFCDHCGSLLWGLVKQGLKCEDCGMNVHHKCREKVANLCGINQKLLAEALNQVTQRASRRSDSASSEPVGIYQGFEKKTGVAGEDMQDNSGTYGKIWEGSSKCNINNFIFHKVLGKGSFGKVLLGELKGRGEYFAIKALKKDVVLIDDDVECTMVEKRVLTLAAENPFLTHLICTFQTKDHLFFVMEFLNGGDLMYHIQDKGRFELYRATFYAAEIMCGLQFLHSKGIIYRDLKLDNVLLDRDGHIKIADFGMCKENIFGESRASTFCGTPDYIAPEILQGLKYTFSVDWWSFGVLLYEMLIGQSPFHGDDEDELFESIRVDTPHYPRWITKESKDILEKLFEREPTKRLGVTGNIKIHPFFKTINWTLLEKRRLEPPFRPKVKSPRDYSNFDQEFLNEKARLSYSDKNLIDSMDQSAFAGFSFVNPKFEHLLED
compound,measurement,setting,value
c1ccc(-c2n[nH]cc2-c2ccnc3ccccc23)nc1,residual activity,ABL2 (human),67.8%
same,residual activity,AKT1 (human),100%
same,residual activity,ALK (human),111%
same,residual activity,AURKA (human),95.4%
same,residual activity,BTK (human),104%
same,residual activity,CAMK2A (human),102%
same,residual activity,CDC42BPB (human),102%
same,residual activity,CDK4 CCND1 (human),101%
same,residual activity,CDK5 CDK5R1 p35 (human),98.6%
same,residual activity,DMPK (human),106%
same,residual activity,DYRK1B (human),102%
same,residual activity,EPHA8 (human),94.6%
same,residual activity,EPHB2 (human),103%
same,residual activity,FGFR1 (human),94.2%
same,residual activity,FGFR2 (human),110%
same,residual activity,FGR (human),91.9%
same,residual activity,GRK4 (human),94.3%
same,residual activity,GSG2 (human),90.8%
same,residual activity,IRAK1 (human),124%
same,residual activity,[1],96.7%
same,residual activity,JAK3 JH1 JH2 (human),92.7%
same,residual activity,MAP2K1 (human),93.7%
same,residual activity,MAPK10 (human),92.9%
same,residual activity,MAPK9 (human),98.9%
same,residual activity,MYO3B (human),91.7%
same,residual activity,NEK2 (human),97%
same,residual activity,NTRK1 (human),102%
same,residual activity,OXSR1 (human),85.3%
same,residual activity,PAK7 (human),97.1%
same,residual activity,PLK2 (human),98.9%
same,residual activity,PRKCD (human),96.6%
same,residual activity,PRKD1 (human),63%
same,residual activity,RPS6KA1 KD1 KD2 (human),88.1%
same,residual activity,RPS6KA4 KD2 (human),87.2%
same,residual activity,RPS6KB2 (human),101%
same,residual activity,SIK2 (human),94.8%
same,residual activity,SRPK3 (human),88.9%
same,residual activity,TAOK2 (human),96.8%
same,residual activity,TLK2 (human),98.6%
same,residual activity,TNK2 (human),96.2%
same,residual activity,WEE1 (human),91.1%
Cc1ccc(Nc2nccc(N(C)c3ccc4c(C)n(C)nc4c3)n2)cc1S(N)(=O)=O,residual activity,ABL2 (human),38.5%
same,residual activity,AKT1 (human),91.2%
same,residual activity,ALK (human),85.3%
same,residual activity,AURKA (human),38.4%
same,residual activity,BTK (human),78.8%
same,residual activity,CAMK2A (human),95.6%
same,residual activity,CDC42BPA (human),85.4%
same,residual activity,CDC42BPB (human),99.9%
same,residual activity,CDK4 CCND1 (human),88.4%
same,residual activity,CDK5 CDK5R1 p35 (human),99.3%
same,residual activity,DMPK (human),93.5%
same,residual activity,DYRK1B (human),93.3%
same,residual activity,EPHA8 (human),90%
same,residual activity,EPHB2 (human),91.9%
same,residual activity,FGFR2 (human),40.2%
same,residual activity,FGR (human),35.8%
same,residual activity,GRK4 (human),91.7%
same,residual activity,GSG2 (human),90.4%
same,residual activity,IRAK1 (human),97%
same,residual activity,[1],104%
same,residual activity,JAK3 JH1 JH2 (human),95.3%
same,residual activity,MAP2K1 (human),106%
same,residual activity,MYO3B (human),83.4%
same,residual activity,NEK2 (human),110%
same,residual activity,NTRK1 (human),91.8%
same,residual activity,OXSR1 (human),103%
same,residual activity,PAK7 (human),95.4%
same,residual activity,PLK2 (human),101%
same,residual activity,PRKCD (human),106%
same,residual activity,PRKD1 (human),96.9%
same,residual activity,RPS6KA1 KD1 KD2 (human),92.8%
same,residual activity,RPS6KA4 KD2 (human),102%
same,residual activity,RPS6KB2 (human),103%
same,residual activity,SIK2 (human),84.1%
same,residual activity,SRPK3 (human),102%
same,residual activity,TAOK2 (human),26.8%
same,residual activity,TLK2 (human),85.6%
same,residual activity,TNK2 (human),90.2%
same,residual activity,WEE1 (human),95.3%
